Tests used:
[1] = test system: high fat and high sucrose diet taking SD rats; experiment: Efficacy on high fat and high sucrose diet taking rats; assay type: in vivo, rat; settings: HF diet SD rats, four weeks, oral once a day; EPA-E 1000 mg/kg or compound 2 1 mg/kg; compared with the control group
Procedure: Four-week-old male SD rats are fed at 23° C. on a 12:12 light/dark cycle, whereupon they are permitted to take either an ordinary diet (F-1; Funabashi Farm Co., Ltd.) or a high fat and high sucrose diet (TD88137 from Harlan […]; hereafter referred to as “HF diet”) freely for four weeks. The rats are divided into five groups (each comprising 10 animals), namely, normal group (ordinary diet-loaded), control group (HF diet-loaded), EPA-E group (HF diet-loaded, plus EPA-E-administered), compound 2 group (HF diet-loaded, plus compound 2-administered), and combined application group (HF diet-loaded, plus EPA-E-administered, plus compound 2-administered). During the feeding, 1000 mg/kg of EPA-E is administered to the EPA-E group, 1 mg/kg of compound 2 to the compound 2 group, as well as 1000 mg/kg of EPA-E and 1 mg/kg of compound 2 are administered to the combined application group, with each administration being orally carried out once a day by suspending the relevant drug or drugs in a 5% aqueous solution of gum arabic. To the normal group and the control group, a 5% aqueous solution of gum arabic is orally administered once a day. After the feeding for four weeks, blood samples are collected to measure the neutrophil count and conduct biochemical assays of the plasma.

[2] = test system: diabetic mice (db/db) loaded with a methionine-choline-deficient diet; experiment: Efficacy on methionine-choline-deficient diet diabetic mice; assay type: in vivo, mouse; settings: MCD diet db/db mice, two weeks, oral once a day; EPA-E 1000 mg/kg or compound 1 1 mg/kg; compared with the control group
Procedure: Pharmacological actions of EPA-E and/or compound 1 on hepatic disorders and fibrosis are confirmed by using diabetic mice loaded with a methionine-choline-deficient diet (hereafter referred to as “MCD diet”), which are known for their development of NASH-like hepatic lesions. Seven-week-old male db/db mice (Charles River Japan, Inc.) are fed at 23° C. on a 12:12 light/dark cycle, whereupon they are permitted to take either an ordinary diet (F-1; Funabashi Farm Co., Ltd.) or a MCD diet (Dyets, Inc.) freely for two weeks. The mice are divided into five groups (each comprising 20 animals), namely, normal group (ordinary diet-loaded), control group (MCD diet-loaded), EPA-E group (MCD diet-loaded, plus EPA-E-administered), compound 1 group (MCD diet-loaded, plus compound 1-administered), and combined application group (MCD diet-loaded, plus EPA-E-administered, plus compound 1-administered). During the feeding, 1000 mg/kg of EPA-E is administered to the EPA-E group, 1 mg/kg of compound 1 to the compound 1 group, as well as 1000 mg/kg of EPA-E and 1 mg/kg of compound 1 are administered to the combined application group, with each administration being orally carried out once a day by suspending the relevant drug or drugs in a 5% aqueous solution of gum arabic. To the normal group and the control group, a 5% aqueous solution of gum arabic is orally administered once a day. […]

[3] = test system: NASH; settings: EPA-E of high purity, 2700 mg/day for 12 months; cited from earlier work

| Structure (SMILES) | increases of the neutrophil count, TNFα, IL-6, high sensitivity CRP, ferritin, thioredoxin and type IV collagen [1] | increases of the plasma AST and ALT levels [1] | increases of the plasma AST and ALT levels [2] | increases of the type IV collagen, hyaluronic acid and TIMP-1 levels [2] | NASH (AST or ALT, inflammatory cytokines or oxidative stress markers, hepatobiopsy) [3] |
| --- | --- | --- | --- | --- | --- |
| CC/C=C\C/C=C\C/C=C\C/C=C\C/C=C\CCCC(=O)OCC [EPA-E, EPA ethyl] | suppressed | suppressed | suppressed | suppressed | amelioration of NASH |
| CCn1ncc2c(-c3cncc(Br)c3)c(C#N)c(C)nc21 [compound 2, 4-(5-bromo-3-pyridyl)-1-ethyl-6-methyl-1H-pyrazolo[3,4-b]pyridine-5-carbonitrile] | suppressed | suppressed |  |  |  |

— patent US20110105510A1, “PROPHYLACTIC/AMELIORATING OR THERAPEUTIC AGENT FOR NON-ALCOHOLIC STEATOHEPATITIS” (priority 2008, published 2011)
